Results reported in patent publication US5264423A, “Inhibitors for replication of retroviruses and for the expression of oncogene products” (The United States of America as represented by the …, priority 1992, dated 1993).
“Also recorded” adds a separate entry of the source.

Legend:
[1] = system: HL60 cells; assay: HL60 cell growth (cell count); type: cell-based; conditions: in words
[2] = system: HIV (HTLV-IIIB) in ATH8 cells; assay: HIV cytopathic effect inhibition (viable ATH8 cells, trypan blue); conditions: for anti-HIV activity (cytopathic effect): in words; for protection of target cells, single agent: each agent alone (2 micromoles dideoxyadenosine; 5 micromoles S-dC14), 1000 virions per cell, day 13
Procedure: FIGS. 1A-1D and Table 1, The target cells (2×10^5 ATH8 cells) in each tube were pretreated with the stated concentration of each oligomer for 16 hours and then incubated with Polybrene for 45 minutes. After centrifugation, each set of pelleted cells was exposed to HIV (500 virions per cell, which is a much higher dose than the minimal cytopathic dose) and incubated for one hour. Complete media (2 ml RPMI1640) supplemented with L-glutamine (4 mti), 2-mercaptoethanol ([…]), penicillin (50 unit/ml), and streptomycin (50 micrograms/ml), and containing 15% fetal calf serum and IL-2 (15% of conventional IL-2 from Advanced Biotechnologies, Inc., Silver Spring, MD, plus 20 unit/ml of recombinant IL-2 from Amgen Biochemicals, Thousand Oaks, CA) with the various concentrations of oligomers added. The number of viable cells were counted in a hemocytometer using the trypan blue exclusion method for day 7 following exposure to the virus. Filled columns represent non-virus exposed cells, and dotted columns represent virus exposed cells.
The HIV cytopathic effect inhibition with oligodeoxynucleotides was performed with 18 hours of pretreatment of 2×10^5 target cells (ATH8 cells) with oligos prior to exposure to HTLV-IIIB. After this pretreatment, target cells were treated with Polybrene (2 micrograms/ml) for one hour. The target cells were then, respectively, exposed to HTLV-IIIB virus (generally 500 virions per cell in this series of experiments) for one hour. The 2×10^5 cells were then diluted to 2 ml with complete media containing IL-2 and various concentrations of oligos.
The number of viable cells was counted in a hemocytometer using the trypan blue exclusion method on day 7 following exposure to the virus. Each set of data were obtained from simultaneously performed experiments so as to make a precise comparison among agents tested.
The target cells (2×10^5 ATH8 cells per tube) were preincubated with the stated concentrations of S-dC14 for 24 hours and pretreated with 2 micrograms/ml of Polybrene for 45 minutes. After centrifugation, pelleted cells were exposed to the HIV (1000 virions per cell) for one hour. The cells were incubated in 2 ml of complete media containing IL-2, and the viable cells were counted on day 13.
On day 13 after the exposure to the virus, viable cells were counted by the trypan blue dye exclusion method.

[3] = system: ATH8 cells; assay: Cytotoxicity of ODNs (Table 2); type: cell-based
From the text: Since phosphorothioate ODNs which are not anti-sense sequences appear to be very effective antiviral agents, an attempt was made to clarify the nature of the base composition effect.

[4] = system: snake venom (SV) phosphodiesterase; assay: Nuclease susceptibility, snake venom phosphodiesterase; type: in vitro ADME
From the text: (§1) Several oligodeoxynucleotides were studied with regard to DNase sensitivity, cf. Table 5. These include cytidine homopolymers, ODN-4 (an anti-message 28-mer complementary to the 3' region of the art/trs region of HIV BH10 clone), and myc-1 (a 15-mer complementary to the initiation codon region of the C-myc oncogene). The DNases employed were predominantly endonuclease S1, the exo- and endonuclease P1, and snake venom (SV) phosphodiesterase. The concentration of S1 nuclease was ten-fold higher (100 micromoles/ml) for reactions of oligo-dc, since both the normal and PS analog were degraded extremely slowly be this enzyme. S1 and P1 nuclease digestion proceeded at 2-45 times more slowly for the S-ODNs than for the normal oligomers, with the […] being somewhat more readily digested than the 28-mer.

[5] = system: exo- and endonuclease P1; assay: Nuclease susceptibility, P1 nuclease; type: in vitro ADME
From the text: as §1

[6] = Stability in human serum; type: in vitro ADME; conditions: 31P NMR
[7] = system: endonuclease S1; assay: Nuclease susceptibility, S1 nuclease; type: in vitro ADME
From the text: as §1

[8] = Stability in in vitro test media followed by 31P NMR; type: in vitro ADME
From the text: The phosphorothioate oligodeoxynucleotides of the present invention have suitable chemical characteristics, namely, the ability to hybridize with complementary DNA/MRNA under physiological conditions, and better solubility properties relative to methylphosphonates. Moreover, the thioesters are as soluble in biological media as the parent compounds.
Thus, it is believed that it is mainly the relative resistance of the phosphorothioate analogs to nucleases that preserves them relative to n-ODNs, and allows them to reach and remain at their target site. This was supported in relation to the media used in the in vitro test system by following the 31P NMR spectra of the n-ODN-1 and S-ODN-1 compounds as a function of time.

[9] = system: de novo HIV DNA synthesis in ATH8 cells; assay: Southern blot of de novo HIV DNA synthesis; type: cell-based; conditions: positive control, 50 micromoles (lanes E and J)
From the text: Target cells (1×10^7 ATH8 cells) were pretreated with or without S-dC28 at various concentrations for sixteen hours, then treated with Polynrene, exposed to HIV (500 virus particles per cell), resuspended, and cultured in the presence or absence of S-dC28. On days 4 and 7 following the exposure to the virus, high molecular weight DNA was extracted, digested with Asp718 (a Kpn I isoschizomer from Boehringer-tiannheim, Indianapolis, IN), and subjected to Southern blot analysis hybridized with a labelled insert of molecular clone of the env region of HTLV-III (BH10) containing a 1.3 Kb Bgl II fragment.
FIGS. 6A-6D show the inhibitor effect of the phosphorothioate oligodeoxycytidine analog (S-dC28) on de novo HIV DNA synthesis in target cells. On days 4 and 7 following the exposure to the virus, a substantial amount of viral DNA was detected by Southern blot analysis without antiviral agents.
On day 4, shown in lanes A-E, and day 7, shown in lanes F-J, following exposure to the virus, high molecular weight DNA was extracted. Lanes A and F contain DNA from ATH8 cells that were exposed to the virus and not protected by S-dC28. Lanes B and G, C and H, D and I, contain DNA from ATH8 cells pretreated and cultured with 1 micromole, 5 micromoles, and 7 micromoles S-dC28, respectively. Lanes E and J contain DNA from ATH8 cells treated with 50 micromoles 2', 3'-dideoxyadenonsine, and lane K contains DNA from ATH8 cells that was not exposed to the virus.

[10] = system: gamma-interferon; assay: Induction of gamma-interferon in culture supernatant; type: cell-based; conditions: supernatant of the culture
From the text: Another mechanism which should be considered is induction of interferon production such as that proposed for phosphorothioate analogs of poly-r(I-C). […] Also, since there are no data to support the concept that phosphorothioate internucleotide linkages have a thiol character, and can thus form disulfides, the mechanism of action would likely be different from that proposed for antiviral polynucleotides having thiolated bases such as 5-mercapto-cytosine or -uracil.

Compound | CYTOTOXICITY (%) ([3]; 1 uM) | CYTOTOXICITY (%) ([3]; 5 uM) | CYTOTOXICITY (%) ([3]; 10 uM) | CYTOTOXICITY (%) ([3]; 25 uM) | ANTI-VIRAL EFFECT (%) ([2]; 1 uM) | ANTI-VIRAL EFFECT (%) ([2]; 5 uM) | ANTI-VIRAL EFFECT (%) ([2]; 10 uM) | ANTI-VIRAL EFFECT (%) ([2]; 25 uM) | anti-HIV activity (cytopathic effect) [2] | further results
5'-CTG AAG TGG CAT GAG (CTGAAGTGGCATGAG; all phosphorothioate, sugars by position and methylation of C not given here) [non-sense sequence, reference compound] |  |  |  |  |  |  |  |  |  | effect on HL60 cell proliferation [1]: none of the controls used, namely, the non-sense sequence, has shown similar activity; effect on HL60 cell proliferation ([1]; listed as nonsense S-ODN): not all nonsense S-ODN concentrations affected cell proliferation
Nc1ccn([C@H]2CC[C@@H](CO)O2)c(=O)n1 [2', 3'-dideoxycytidine, reference compound] |  |  |  |  |  |  |  |  |  | protection against the virus / antiviral activity ([2]; 0.5 micromoles): complete antiviral activity
recombinant gamma-interferon: recombinant alpha- or gamma-interferon |  |  |  |  |  |  |  |  |  | inhibition of the cytopathic effect ([2]; 1000 units added directly to the cultures): did not inhibit the cytopathic effect
d-(Gs Gs As Gs As Cs As Gs Cs Gs As Cs Gs A) [S-ODN-2] | 0% | 0% | 0% | 6% | 11% | 56% | 100% | 78% | protected against HIV | 
dAACGTTGAGGGGCAT [O-myc-1, reference compound] |  |  |  |  |  |  |  |  |  | Nuclease susceptibility, t1/2 [4]: 28 s; Nuclease susceptibility, t1/2 [5]: 69 s; half-life in 50% human serum [6]: two to three days; Nuclease susceptibility, t1/2 [7]: 36 s
d-(Ts Cs Gs Ts Cs Gs Cs Ts Gs Ts Cs Ts Cs C) [S-ODN-1] | 0% | 0% | 0% | 20% | 0% | 43% | 72% | 95% | substantial activity against HIV; also recorded: protected against HIV | phosphorothioate bonds after 10 days ([8]; 10 days): still intact after 10 days; decomposition based on the total signal intensity ([8]; after 10 days): less than 5%; degradation / half-life in media used in the in vitro test system ([8]; up to a week): no significant degradation even after a week
Nc1ncnc2c1ncn2[C@H]1CC[C@@H](CO)O1 [2', 3'-dideoxyadenosine, reference compound] |  |  |  |  |  |  |  |  |  | inhibition of de novo synthesis of viral DNA [9]: significantly inhibited the de novo synthesis of viral DNA; inhibition of de novo synthesis of viral DNA ([9]; listed as 2', 3'-dideoxyadenonsine): detected only in lanes A and F; protection of target cells, single agent [2]: only marginal protective effects
(dC)n n = 14 [S-dC14] | 0% | 0% | 0% | 0% | 25% | 100% | 100% | 100% | most potent antiviral compound among those tested in this series of experiments | induction of gamma-interferon [10]: No induction of gamma-interferon; protection against the virus ([2]; 5 micromoles (65 micromole equivalents), FIGS. 6B-6D): only a moderate effect; protection of target cells, single agent [2]: only marginal protective effects; anti-HIV activity (cytopathic effect) ([2]; listed as 14-mer oligo-dc): substantial protection against HIV cytopathic effect
d-(Cs As Ts As Gs Gs As Gs As Ts Gs Cs Cs T) [S-ODN-3] | 0% | 0% | 0% | 13% | 0% | 6% | 44% | 94% |  | 
dTCGTCGCTGTCTCCGCTTCTTCCTGCCA [O-ODN-4, reference compound] |  |  |  |  |  |  |  |  |  | Nuclease susceptibility, t1/2 [4]: 20 s; Nuclease susceptibility, t1/2 [5]: 72 s
